Results as given in US20260207720A1, “COMPOSITIONS AND METHODS FOR TREATING FUNGAL INFECTIONS” (MUCPharm Pty Ltd, priority 2022, published 2026).
≈ marks a conversion by molar mass, not a printed value. Where two headings read alike, the source gives them in different places.

Assays:
Format in all cases: cell-based
[1] = system: Candida glabrata (clinical isolate); test: Broth dilution susceptibility test, MIC and percent growth (Example 5)
Protocol: These experiments were conducted to determine the effect of BromAc alone and in combination with existing antifungal drugs against Candida glabrata (clinical isolate).
(§1) A. Preparation of inoculum: • 1. Candida glabrata was grown on Sabouraud dextrose agar (SDA) at 37° C. for 24-48 hrs. • 2. Following this, 5 colonies of 1 mm diameter were picked and suspended in 5 mL sterile saline (0.9% saline) and vortexed for 15 seconds. • 3. Working suspension is prepared as a 1:100 dilution from stock suspension with RPMI 1640 culture medium. • 4. The cell density is adjusted with a spectrophotometer to the transmittance produced by a 0.5 McFarland standard (0.08 to 0.1) OD at 625 nm wavelength.
(§2) • 1. For Bromelain, a stock concentration of 1 mg/ml Bromelain solution was prepared in RPMI media and diluted to test concentrations of 62.4, 31.2, 15.6 and 7.8 μg/ml in RPMI 1640 media. • 2. Acetylcysteine stock concentration is 200 mg/ml, diluted to 40, 20, 10, and 5 mg/ml concentrations in RPMI 1640 medium. • 3. These concentrations are prepared at 2× of the required concentrations in the final assay plate.
(§3) Antifungal stock concentrations are as follows— • 1. Amphotericin B, Stock concentration: 250 μg/ml in water. • 2. Posaconazole, Original concentration: 300 mg in 16.7 ml, Working stock concentration: 1 mg/ml in DMSO. • 3. Fluconazole, Original concentration: 100 mg in 50 ml, Working stock concentration: 1 mg/ml in DMSO. • 4. The final concentration was prepared in RPMI 1640 media and concentrations range was 0.01-0.5 μg/mL for amphotericin B, 0.01-2 μg/mL for posaconazole and 0.01-64 μg/mL for fluconazole. • 5. These concentrations were prepared at 2× of the required concentrations in the final assay plate.
(§4) • 1. Wells of the 96-well plates were inoculated with appropriate concentrations and volumes of drugs. • 2. Sterility control and growth controls are included in each plate. • 3. Each 96-well plate (except the control wells) contains 100 μL of double strength (twice the final antifungal drug) concentrations. • 4. 100 μL of the fungal suspension is added to 96-well plates (except the sterility control wells). • 5. The growth control wells contained 100 μL of sterile drug-free medium and 100 μL of inoculum suspension, while the sterility control wells contained 200 μl of sterile drug-free medium. • 6. Plates are then incubated at 37° C. and read at 625,430, and 530 nm wavelengths. • 7. Data from 24 hours and absorbance at 625 nm were used for analysis.

[2] = system: Candida Krusei (ATCC strain 6258); test: Broth dilution susceptibility test, MIC and percent growth (Example 6)
Protocol: as §1, §2, §3, §4
These experiments were conducted to determine the effect of BromAc alone and in combination with existing antifungal drugs against Candida Krusei (ATCC strain 6258).
The method used in these experiments is essentially the same as that described above in Example 5.

Candida auris = test: Susceptibility assay of antifungals with BromAc (Example 4); settings: for Observed inhibitory effect: Candida aurus, antifungal in combination with BromAc (5 mg/ml Acetylcysteine+12.5 μg/ml Bromelain) vs alone
Protocol: (§5) The in vitro antifungal properties of Bromelain, Acetylcysteine, BromAc, Amphotericin B, Isavuconazole, Fluconazole and Posaconazole were determined using a broth microdilution method in round bottom 96 well plates in accordance with standard procedures defined by the Clinical Laboratory Standards Institute (CLSI).
(§6) Unless otherwise described, fungal cultures were grown on potato dextrose agar plates at 35° C. until mature (appearance of conidia) and used to prepare suspensions in sterile water. Suspensions were diluted in RPMI 1:60. These suspensions were then added in equal volume to solutions containing the candidate species described above and incubated at 35° C. for 24 hr. Plates were then analysed for fungal growth inhibition and MIC values determined.
(§7) BromAc (5 mg/ml Acetylcysteine+12.5 μg/ml Bromelain) was used in combination with Amphotericin B, Isavuconazole, Posaconazole and Fluconazole. The MIC values of these four antifungal agents against the fungus described below were calculated and compared with their corresponding MIC values in the presence of BromAc, using the standard susceptibility assays described above.
(§8) The fungal strains set out in Table 2, all of which were sourced from a range of clinical isolates from Australian hospitals, were used in these experiments to gain a further understanding of the efficacy of BromAc in combination with Amphotericin B, Isavuconazole, Posaconazole and Fluconazole.

Candida glabrata = test: as above; settings: for Observed inhibitory effect: antifungal in combination with BromAc (5 mg/ml Acetylcysteine+12.5 μg/ml Bromelain) vs alone
Protocol: as §5, §6, §7, §8

Candida kruseii = test: as above; settings: antifungal in combination with BromAc (5 mg/ml Acetylcysteine+12.5 μg/ml Bromelain) vs alone
Protocol: as §5, §6, §7, §8

Candida tropicalis = test: as above; settings: antifungal in combination with BromAc (5 mg/ml Acetylcysteine+12.5 μg/ml Bromelain) vs alone
Protocol: as §5, §6, §7, §8

Cryptococcus = test: as above; settings: for Observed inhibitory effect: antifungal in combination with BromAc (5 mg/ml Acetylcysteine+12.5 μg/ml Bromelain) vs alone; for isolates with more than 10× increase: antifungal with BromAc
Protocol: as §5, §6, §7, §8

Rhizopus arrhizus = test: Chequerboard broth microdilution antifungal susceptibility testing (MIC)
Protocol: as §6, with “Suspensions were diluted in RPMI 1:60.” left out, “determined. […] [MICA (combined)/MICA]+[MICB (combined)/MICB] MICA (combined) is the MIC of drug A when both drugs (i.e. drug A and drug B) are present and MICA is the MIC of drug A used in isolation. Similarly, MICB (combined) is the MIC of drug B when both drugs are present and MICB is the MIC of drug B used in isolation.” for “determined.”

Rhizopus microsporus = test: as above
Protocol: as §6, with “Suspensions were diluted in RPMI 1:60.” left out, “determined. […] [MICA (combined)/MICA]+[MICB (combined)/MICB] MICA (combined) is the MIC of drug A when both drugs (i.e. drug A and drug B) are present and MICA is the MIC of drug A used in isolation. Similarly, MICB (combined) is the MIC of drug B when both drugs are present and MICB is the MIC of drug B used in isolation.” for “determined.”

Aspergillus = test: Susceptibility assay of antifungals with BromAc (Example 4); settings: antifungal in combination with BromAc (5 mg/ml Acetylcysteine+12.5 μg/ml Bromelain) vs alone
Protocol: as §5, §6, §7, §8

Cunninghamella = test: as above; settings: antifungal in combination with BromAc (5 mg/ml Acetylcysteine+12.5 μg/ml Bromelain) vs alone
Protocol: as §5, §6, §7, §8

Fusarium = test: as above; settings: antifungal in combination with BromAc (5 mg/ml Acetylcysteine+12.5 μg/ml Bromelain) vs alone
Protocol: as §5, §6, §7, §8

Licthemia = test: as above; settings: antifungal in combination with BromAc (5 mg/ml Acetylcysteine+12.5 μg/ml Bromelain) vs alone
Protocol: as §5, §6, §7, §8

Lomentospora = test: as above; settings: antifungal in combination with BromAc (5 mg/ml Acetylcysteine+12.5 μg/ml Bromelain) vs alone
Protocol: as §5, §6, §7, §8

Mucor circinelloides = test: as above
Protocol: as §5, §6, §7, §8

Scedosporium = test: as above; settings: antifungal in combination with BromAc (5 mg/ml Acetylcysteine+12.5 μg/ml Bromelain) vs alone
Protocol: as §5, §6, §7, §8

[3] = system: Aspergillus fumigatus (ATCC strain 13697); test: Broth dilution susceptibility test, MIC and percent growth (Example 7)
Protocol: as §1, §2, §3, §4
These experiments were conducted to determine the efficacy of BromAc alone and in combination with existing antifungal drugs against Aspergillus fumigatus (ATCC strain 13697).
The method used in these experiments is essentially the same as that described above in Example 5. In these experiments, however, echinocandins such as […] Caspofungin are used in place of the azole antifungals described in earlier examples.

## OC(Cn1cncn1)(Cn1cncn1)c1ccc(F)cc1F [Fluconazole]
[1]; Nakaseomyces glabratus, 50% growth inhibition, 24 hours, 625 nm
  MIC: > 32 µg/mL
[1]; concentrations lower than the MIC
  effect at lower concentration compared to growth control (in words): no change
[2]; Pichia kudriavzevii, ATCC6258, 50% growth inhibition, FIG. 11
  MIC: 32 µg/mL
[2]; Pichia kudriavzevii, ATCC6258, Posaconazole 1 ug/ml, Fluconazole 32 μg/ml, read-out: activity (growth inhibition) at its MIC
  inhibition at 32 µg/mL: 50%
[2]; below the MIC (Posaconazole 0.03 μg/ml)
  effect at lower doses / concentrations compared to GC (in words): no efficacy
Candida auris
  Observed inhibitory effect: No effect
Candida glabrata
  Observed inhibitory effect: Strong (Strong = 5-10x (or greater) inhibitory effect)
Candida kruseii
  Observed inhibitory effect: Strong (Strong = 5-10x (or greater) inhibitory effect)
Candida tropicalis
  Observed inhibitory effect: Strong (Strong = 5-10x (or greater) inhibitory effect)
Cryptococcus
  Observed inhibitory effect: Strong (Strong = 5-10x (or greater) inhibitory effect)
  isolates with more than 10× increase: 5 of 5

## C[C@@H](c1nc(-c2ccc(C#N)cc2)cs1)[C@](O)(Cn1cncn1)c1cc(F)ccc1F [Isavuconazole]
Rhizopus arrhizus; Rhizopus Arrhizus, antifungal with BromAc
  isolates with 10× increase: 6 of 8
Rhizopus arrhizus; Rhizopus arrhizus, eight R. arrhizus strains, read-out: MIC, average over the strains
  MIC: 0.8 µg/mL (≈ 1.83 µM)
Rhizopus arrhizus; Rhizopus arrhizus, isolate R. archizus 1, BromAc at constant concentration where combined, read-out: MIC
  MIC: 1 µg/mL
Rhizopus arrhizus; Rhizopus arrhizus, isolate R. archizus 2, BromAc at constant concentration where combined, read-out: MIC
  MIC: 1 µg/mL
Rhizopus arrhizus; Rhizopus arrhizus, isolate R. archizus 3, BromAc at constant concentration where combined, read-out: MIC
  MIC: 1 µg/mL
Rhizopus arrhizus; Rhizopus arrhizus, isolate R. archizus 8, BromAc at constant concentration where combined, read-out: MIC
  MIC: 1 µg/mL
Rhizopus arrhizus; Rhizopus arrhizus, isolate R. arrhizus 4, BromAc at constant concentration where combined, read-out: MIC
  MIC: 1 µg/mL
Rhizopus arrhizus; Rhizopus arrhizus, isolate R. arrhizus 5, BromAc at constant concentration where combined, read-out: MIC
  MIC: 0.5 µg/mL
Rhizopus arrhizus; Rhizopus arrhizus, isolate R. arrhizus 6, BromAc at constant concentration where combined, read-out: MIC
  MIC: 1 µg/mL
Rhizopus arrhizus; Rhizopus arrhizus, isolate R. arrhizus 7, BromAc at constant concentration where combined, read-out: MIC
  MIC: 0.5 µg/mL
Rhizopus arrhizus; Rhizopus arrhizus, antifungal in combination with BromAc (5 mg/ml Acetylcysteine+12.5 μg/ml Bromelain) vs alone
  Observed inhibitory effect: Strong (Strong = 5-10x (or greater) inhibitory effect)
Rhizopus arrhizus; eight R. arrhizus strains
  MICs, range over the strains: 0.5 to 2 µg/mL
Rhizopus microsporus; Rhizopus microspores, antifungal with BromAc
  isolates with more than 10× increase: 9 of 10
Rhizopus microsporus; Rhizopus microsporus, eight R. microsporus strains, read-out: MIC, average over the strains
  MIC: 0.9 µg/mL (≈ 2.06 µM)
Rhizopus microsporus; Rhizopus microsporus, isolate R. microsporus 1, BromAc at constant concentration where combined, read-out: MIC
  MIC: 0.2 µg/mL
Rhizopus microsporus; Rhizopus microsporus, isolate R. microsporus 2, BromAc at constant concentration where combined, read-out: MIC
  MIC: 0.5 µg/mL
Rhizopus microsporus; Rhizopus microsporus, isolate R. microsporus 3, BromAc at constant concentration where combined, read-out: MIC
  MIC: 0.5 µg/mL
Rhizopus microsporus; Rhizopus microsporus, isolate R. microsporus 4, BromAc at constant concentration where combined, read-out: MIC
  MIC: 1 µg/mL
Rhizopus microsporus; Rhizopus microsporus, isolate R. microsporus 5, BromAc at constant concentration where combined, read-out: MIC
  MIC: 0.5 µg/mL
Rhizopus microsporus; Rhizopus microsporus, isolate R. microsporus 6, BromAc at constant concentration where combined, read-out: MIC
  MIC: 0.5 µg/mL
Rhizopus microsporus; Rhizopus microsporus, isolate R. microsporus 7, BromAc at constant concentration where combined, read-out: MIC
  MIC: 0.5 µg/mL
Rhizopus microsporus; Rhizopus microsporus, antifungal in combination with BromAc (5 mg/ml Acetylcysteine+12.5 μg/ml Bromelain) vs alone
  Observed inhibitory effect: Strong (Strong = 5-10x (or greater) inhibitory effect)
Rhizopus microsporus; eight R. microsporus strains
  MICs, range over the strains: 0.5 to 1 µg/mL
Aspergillus
  Observed inhibitory effect: Moderate (Moderate = 1-5x inhibitory effect)
Candida auris; Candida auris, antifungal with BromAc
  isolates with more than 10× increase: 4 of 5
Candida auris
  Observed inhibitory effect: Strong (Strong = 5-10x (or greater) inhibitory effect)
Candida glabrata
  Observed inhibitory effect: Strong (Strong = 5-10x (or greater) inhibitory effect)
Candida glabrata; antifungal with BromAc
  isolates with more than a 10× increase in sensitivity: 5 of 5
Candida kruseii
  Observed inhibitory effect: Strong (Strong = 5-10x (or greater) inhibitory effect)
Candida tropicalis
  Observed inhibitory effect: Strong (Strong = 5-10x (or greater) inhibitory effect)
Cryptococcus
  Observed inhibitory effect: Strong (Strong = 5-10x (or greater) inhibitory effect)
  isolates with more than 10× increase: 5 of 5
Cunninghamella
  Observed inhibitory effect: Possible
Fusarium
  Observed inhibitory effect: No effect
Licthemia
  Observed inhibitory effect: Possible
Lomentospora
  Observed inhibitory effect: No effect
Mucor circinelloides; antifungal in combination with BromAc (5 mg/ml Acetylcysteine+12.5 μg/ml Bromelain) vs alone
  Observed inhibitory effect: Strong (Strong = 5-10x (or greater) inhibitory effect)
Mucor circinelloides; antifungal with BromAc
  isolates with increased sensitivity: 2 of 2
Scedosporium
  Observed inhibitory effect: No effect

## C[C@@H](c1ncncc1F)[C@](O)(Cn1cncn1)c1ccc(F)cc1F [Voriconazole]
[3]; Aspergillus fumigatus, ATCC13697, FIGS. 13a, 14a, read-out: MIC
  MIC: 2 µg/mL
[3]; Voriconazole 1 μg/ml and 0.5 μg/ml, Caspofungin 0.25 μg/ml and 0.125 μg/ml
  effect at lower concentrations (in words): almost no inhibitory effect
